The values that follow come from US6770638B2, “Tetrahydroindolone and purine derivatives linked to arylpiperazines” (Spectrum Pharmaceuticals, Inc., priority 2001, dated 2004).

Structures are written as SMILES.

For one data set, the system named is Caco-2 cells. The experiment in a line: Membrane permeability (Papp) across Caco-2 cell monolayers. The format is in vitro ADME. As to conditions: Caco-2; for EFFLUX LIMITED: Yes/No; for PERMEABILITY: class in words (High/Low).
Experiment in data set [1]: as above
The following applies: human, Caco-2 monolayer; for Papp A→B: apical to basolateral, read-out: Papp (cm/s × 10^6) AP-to-BL; for Papp B→A: basolateral to apical, read-out: Papp (cm/s × 10^6) BL-to-AP; for efflux ratio: read-out: RATIO Papp^B-A/Papp^A-B. The format is in vitro ADME.

A further data set concerns mice. The experiment in a line: Conditioned avoidance responding (CAR, active avoidance). In kind it is in vivo. As to conditions: SC to mice, 20 minutes before test session. Here is the method: Training: Consists of 20 trials with variable inter-trial intervals (Trained to 80% Avoidance Criteria). After a one-minute acclimation period, the house light and an acoustic 90 dB tone (conditioned stimuli) are presented. A response (crossing to dark compartment) within 5 seconds ends the trial and trial is recorded as avoidance response (CAR). […] To avoid shock, animals learn to move from the lighted side of the -chamber to the dark side when the cue is presented (avoidance) or moved when the shock is administered (escape). Testing: Vehicle or test compounds are administered S.C. 20 minutes before the test session. (Checking for disruption of cognition and attention)

In another data set the test system is male C-57 mice. The experiment in a line: PCP disruption of pre-pulse inhibition of the acoustic startle response. The format is in vivo. The following applies: route not given (method: PO or SC); PCP 5 mg/kg IP. Here is the method:
The non-competitive NMDA receptor antagonist phencyclidine (PCP) reduces pre-pulse inhibition (PPI) of the acoustic startle response in rodents. Identifying compounds that improve the PCP-induced deficits in pre-pulse inhibition may provide insight into therapeutic strategies for treating schizophrenia. For testing of PPI, male C-57 mice were assigned to five dose groups of eight animals per group, and vehicle or test compound were administered orally (PO) or subcutaneously (SC) 20 minutes prior to intraperitoneal (IP) administration of vehicle or PCP (5 mg/kg). Ten minutes following PCP administration, the mice were placed into Hamilton-Kinder startle chambers and evaluation of pre-pulse inhibition procedure was performed. Following a five-minute acclimatization period with background white noise (65 db), mice were exposed to five different trial types. Trials were presented […] in a quasi-random order, with randomized 5 to 25 second inter-trial intervals. Trials were: stimulus only trial (120 db white noise, 50 ms stimulus); two different prepulse+pulse trials in which a 20 ms 5 db, or 10 db stimuli above a 65 db background preceded the 120 db pulse by 120 ms; a 10 db prepulse without a 120 db pulse; and a no stimulus trial, in which only the background noise was presented.

`CN1CCN(C2=Nc3cc(Cl)ccc3Nc3ccccc32)CC1` [Clozapine, clozapine, reference compound]: in the data set with Caco-2 cells, the “EFFLUX LIMITED” value is recorded as “No” and the PERMEABILITY result was “High”. Besides, in data set [1], the Papp A→B is 15.3 ± 0.7 ×10⁻⁶ cm/s, the Papp B→A came out at 7.4 ± 1.1 ×10⁻⁶ cm/s and the efflux ratio is 0.65.

`COc1ccccc1N1CCN(CCCn2ccc3c2CCCC3=O)CC1` [NEO-370, 1-{3-[4-(2-Methoxyphenyl)piperazine-1-yl]propyl}-1,5,6,7-tetrahydroindol-4-one]: in the data set on Caco-2 cells, the “EFFLUX LIMITED” value is recorded as “No” and the PERMEABILITY entry is recorded as “High”. In data set [1], the Papp A→B came to 32.1 ± 8.1 ×10⁻⁶ cm/s, the Papp B→A is 20 ± 3.4 ×10⁻⁶ cm/s and the efflux ratio was found to be 0.67. In the data set with mice, the “Conditioned Avoidance Responding, effect on avoidance” value was “Significant reduction in avoidance” and the “Conditioned Avoidance Responding, effect on latency” value is listed as “Significant increase in latency”.

Regarding `O=C1CCCc2c1ccn2CCCN1CCN(c2cccc(Cl)c2)CC1` [NEO-363, 1-{3-[4-(3-Chlorophenyl)piperazine-1-yl]propyl}-1,5,6,7-tetrahydroindol-4-one], in the data set on Caco-2 cells, the “EFFLUX LIMITED” value is on record as “No” and the PERMEABILITY entry is recorded as “High”. In data set [1], the Papp A→B amounted to 18 ± 0.7 ×10⁻⁶ cm/s, the Papp B→A turned out to be 13.1 ± 1.1 ×10⁻⁶ cm/s and the efflux ratio is 0.75. The “Conditioned Avoidance Responding, overall effect / effect on escape or avoidance” value with mice is on record as “No effect”.

With `COc1ccccc1N1CCN(CCn2ccc3c2CCCC3=O)CC1` [NEO-377, 1-{2-[4-(2-Methoxyphenyl)-piperazin-1-yl]-ethyl}-1,5,6,7-tetrahydroindol-4-one], in the data set on Caco-2 cells, the “EFFLUX LIMITED” value is listed as “No” and the PERMEABILITY result is listed as “High”. Further, in data set [1], the Papp A→B amounted to 26 ± 1.8 ×10⁻⁶ cm/s, the Papp B→A was 15.5 ± 2.9 ×10⁻⁶ cm/s and the efflux ratio was 0.6. In the data set on mice, the “Conditioned Avoidance Responding, effect on avoidance” value is “Significant reduction in avoidance” and the “Conditioned Avoidance Responding, effect on latency” value is listed as “Significant increase in latency”.

In the case of `O=C1CCCc2c1ccn2CCN1CCN(c2cccc(Cl)c2)CC1` [NEO-376, 1-{2-[4-(3-Chloro-phenyl)-piperazin-1-yl]-ethyl}-1,5,6,7-tetrahydroindol-4-one], in the data set on Caco-2 cells, the “EFFLUX LIMITED” value is given as “No” and the PERMEABILITY entry is “High”. For the same compound, in data set [1], the Papp A→B stood at 20.4 ± 1.8 ×10⁻⁶ cm/s, the Papp B→A came to 9.4 ± 0.3 ×10⁻⁶ cm/s and the efflux ratio was found to be 0.43. In addition, in the data set with mice, the “Conditioned Avoidance Responding, effect on latency” value is “significant increase in latency” and the “Conditioned Avoidance Responding, overall effect / effect on escape or avoidance” value is “No effect on escape or avoidance”.

In the case of `O=C1CCCc2c1ccn2CCN1CCN(c2cccc(C(F)(F)F)c2)CC1` [NEO-359, 1-{2-[4-(3-Trifluoromethylphenyl)piperazine-1-yl]ethyl}-1,5,6,7-tetrahydroindol-4-one], the “PCP Disruption of Pre-pulse Inhibition, result in words” value (shortened to “PCP Disruption of Pre-pulse Inhibition”) with male C-57 mice is “No reversal”. Besides, in the data set with Caco-2 cells, the “EFFLUX LIMITED” value is “No” and the PERMEABILITY result is recorded as “High”. Besides, in data set [1], the Papp A→B came to 24 ± 3.9 ×10⁻⁶ cm/s, the Papp B→A is 7.6 ± 0.5 ×10⁻⁶ cm/s and the efflux ratio stood at 0.32. In addition, in the data set with mice, the “Conditioned Avoidance Responding, effect on latency” value was “Significant decrease in latency” and the “Conditioned Avoidance Responding, overall effect / effect on escape or avoidance” value is “No effect on escape or avoidance”.

As for `O=C1CCCc2c1ccn2CCCCN1CCN(c2cccc(C(F)(F)F)c2)CC1` [NEO-392, 1-{4-[4-(3-Trifluoromethylphenyl)piperazin-1-yl]-butyl}-1,5,6,7-tetrahydroindol-4-one], in the data set with Caco-2 cells, the “EFFLUX LIMITED” value is “No” and the PERMEABILITY entry is on record as “High”. In addition, in data set [1], the Papp A→B amounted to 27.1 ± 1.2 ×10⁻⁶ cm/s, the Papp B→A worked out at 15.7 ± 1.3 ×10⁻⁶ cm/s and the efflux ratio was 0.58. Besides, in the data set on mice, the “Conditioned Avoidance Responding, effect on avoidance” value is reported as “Significant reduction in avoidance” and the “Conditioned Avoidance Responding, effect on latency” value is “Significant increase in latency”.

`Cc1nc2n(c(=O)c1CCN1CCC(c3noc4cc(F)ccc34)CC1)CCCC2` [Risperidone, risperidone, reference compound]: in the data set with Caco-2 cells, the “EFFLUX LIMITED” value is listed as “No” and the PERMEABILITY result is recorded as “High”. In addition, in data set [1], the Papp A→B was determined as 21.5 ± 0.2 ×10⁻⁶ cm/s and the Papp B→A was determined as 14 ± 3.1 ×10⁻⁶ cm/s. In the data set on mice, the “Conditioned Avoidance Responding, effect on avoidance” value is reported as “Significant reduction in avoidance” and the “Conditioned Avoidance Responding, effect on latency” value is “Significant increase in latency”.

In the case of `O=C1CCCc2c1ccn2CCCN1CCN(c2cccc(C(F)(F)F)c2)CC1` [NEO-356, 1-{3-[4-(3-Trifluoromethylphenyl)piperazin-1-yl]propyl}-1,5,6,7-tetrahydroindol-4-one], the “PCP Disruption of Pre-pulse Inhibition” value in the data set on male C-57 mice is “No reversal”. For the same compound, in the data set with Caco-2 cells, the “EFFLUX LIMITED” value was “No” and the PERMEABILITY result is given as “High”. Moreover, in data set [1], the Papp A→B was found to be 21.5 ± 2.9 ×10⁻⁶ cm/s, the Papp B→A was 8.8 ± 0.3 ×10⁻⁶ cm/s and the efflux ratio is 0.41. The “Conditioned Avoidance Responding, overall effect / effect on escape or avoidance” value with mice is given as “No effect”.

In the case of `CC(C)NCC(O)COc1cccc2ccccc12` (stereo not shown) [Propranolol, reference compound], in the data set with Caco-2 cells, the “EFFLUX LIMITED” value is given as “No” and the PERMEABILITY entry was “High”. Besides, the Papp A→B in data set [1] was 17.3 ± 2.3 ×10⁻⁶ cm/s.

As for `O=C1CCCc2c1ccn2CCCN1CCN(c2ncccn2)CC1` [NEO-381, 1-{3-[4-(2-Pyrimidyl)piperazine-1-yl]propyl}-1,5,6,7-tetrahydroindol-4-one], the “PCP Disruption of Pre-pulse Inhibition” value with male C-57 mice was “No reversal”. In addition, in the data set with Caco-2 cells, the “EFFLUX LIMITED” value is “No” and the PERMEABILITY entry is recorded as “High”. Further, in data set [1], the Papp A→B turned out to be 32.9 ± 9.6 ×10⁻⁶ cm/s, the Papp B→A came to 25.3 ± 0.7 ×10⁻⁶ cm/s and the efflux ratio was 0.77. In the data set on mice, the “Conditioned Avoidance Responding, overall effect / effect on escape or avoidance” value was “No effect”.
